pEC50: −log10 of the molar value.
System: NL-RLuc virus
Assay: Inhibition of HIV replication (NL-RLuc luciferase reporter virus in MT-2 cells)
Assay type: cell-based
Conditions: Human immunodeficiency virus 1, MT2, 120 h

| Structure (SMILES) | pEC50 |
| --- | --- |
| Cc1nc2cc3nn2c(c1[C@H](OC(C)(C)C)C(=O)O)N1CCC(C)(CC1)OCCCC[C@H](C)Oc1ccc(C(F)(F)F)cc1-c1cccc-3c1 [Example 1, (2S)-2-(tert-Butoxy)-2-[(22S)-4,22,28-trimethyl-17-(trifluoromethyl)-21,27-dioxa-1,5,7,8-tetraazahexacyclo[26.2.2.1^6,9.1^10,14.0^2,7.0^15,20]tetratriaconta-2,4,6(34),8,10(33),11,13,15(20),16,18-decaen-3-yl]acetic acid] | 7.41 |
| Cc1nc2cc3nn2c(c1[C@H](OC(C)(C)C)C(=O)O)N1CCC(C)(CC1)OCCCC[C@H](C)Oc1cc(F)cc(F)c1-c1cccc-3c1 [Example 3, (2S)-2-(tert-Butoxy)-2-[(22S)-16,18-difluoro-4,22,28-trimethyl-21,27-dioxa-1,5,7,8-tetraazahexacyclo[26.2.2.1^6,9.1^10,14.0^2,7.0^15,20]tetratriaconta-2,4,6(34),8,10(33),11,13,15(20),16,18-decaen-3-yl]acetic acid] | 7.59 |
| COc1ccc2c(c1)-c1cccc(c1)-c1cc3nc(C)c([C@H](OC(C)(C)C)C(=O)O)c(n3n1)N1CCC(C)(CC1)OCCCC[C@H](C)O2 [Example 8, (2S)-2-(tert-Butoxy)-2-[(22S)-17-methoxy-4,22,28-trimethyl-21,27-dioxa-1,5,7,8-tetraazahexacyclo[26.2.2.1^6,9.1^10,14.0^2,7.0^15,20]tetratriaconta-2,4,6(34),8,10(33),11,13,15(20),16,18-decaen-3-yl]acetic acid] | 8.30 |
| Cc1cc(F)c2c(c1)O[C@@H](C)C/C=C/COC1(C)CCN(CC1)c1c([C@H](OC(C)(C)C)C(=O)O)c(C)nc3cc(nn13)-c1cccc-2c1 [Example 4, (2S)-2-(tert-Butoxy)-2-[(22S,24E)-16-fluoro-4,18,22,28-tetramethyl-21,27-dioxa-1,5,7,8-tetraazahexacyclo[26.2.2.1^6,9.1^10,14.0^2,7.0^15,20]tetratriaconta-2,4,6(34),8,10(33),11,13,15(20),16,18,24-undecaen-3-yl]acetic acid] | 7.64 |
| Cc1cc(F)c2c(c1)O[C@@H](C)CCCOC1(C)CCN(CC1)c1c([C@H](OC(C)(C)C)C(=O)O)c(C)nc3cc(nn13)-c1cccc-2c1 [Example 18, (2S)-2-(tert-Butoxy)-2-[(22S)-16-fluoro-4,18,22,27-tetramethyl-21,26-dioxa-1,5,7,8-tetraazahexacyclo[25.2.2.1^6,9.1^10,14.0^2,7.0^15,20]tritriaconta-2,4,6(33),8,10(32),11,13,15(20),16,18-decaen-3-yl]acetic acid] | 8.15 |
| Cc1nc2cc3nn2c(c1[C@H](OC(C)(C)C)C(=O)O)N1CCC(C)(CC1)OC/C=C/[C@H](C)Oc1cc(F)ccc1-c1cccc-3c1 [Example 9, (2S)-2-(tert-Butoxy)-2-[(23E)-18-fluoro-4,22,27-trimethyl-21,26-dioxa-1,5,7,8-tetraazahexacyclo[25.2.2.1^6,9.1^10,14.0^2,7.0^15,20]tritriaconta-2,4,6(33),8,10(32),11,13,15(20),16,18,23-undecaen-3-yl]acetic acid] | 8.22 |
| Cc1cc(F)c2c(c1)O[C@@H](C)CCCCOC1(C)CCN(CC1)c1c([C@H](OC(C)(C)C)C(=O)O)c(C)nc3cc(nn13)-c1cccc-2c1 [Example 5, (2S)-2-(tert-Butoxy)-2-[(22S)-16-fluoro-4,18,22,28-tetramethyl-21,27-dioxa-1,5,7,8-tetraazahexacyclo[26.2.2.1^6,9.1^10,14.0^2,7.0^15,20]tetratriaconta-2,4,6(34),8,10(33),11,13,15(20),16,18-decaen-3-yl]acetic acid] | 7.66 |
| Cc1ccc2c(c1)-c1cccc(c1)-c1cc3nc(C)c([C@H](OC(C)(C)C)C(=O)O)c(n3n1)N1CCC(C)(CCCCC[C@H](C)O2)CC1 [Example 21, (2S)-2-(tert-Butoxy)-2-[(22S)-4,17,22,28-tetramethyl-21-oxa-1,5,7,8-tetraazahexacyclo[26.2.2.1^6,9.1^10,14.0^2,7.0^15,20]tetratriaconta-2,4,6(34),8,10(33),11,13,15(20),16,18-decaen-3-yl]acetic acid] | 6.82 |
| CCc1ccc2c(c1)-c1cccc(c1)-c1cc3nc(C)c([C@H](OC(C)(C)C)C(=O)O)c(n3n1)N1CCC(C)(CC1)OCCCC[C@H](C)O2 [Example 7, (2S)-2-(tert-Butoxy)-2-[(22S)-17-ethyl-4,22,28-trimethyl-21,27-dioxa-1,5,7,8-tetraazahexacyclo[26.2.2.1^6,9.1^10,14.0^2,7.0^15,20]tetratriaconta-2,4,6(34),8,10(33),11,13,15(20),16,18-decaen-3-yl]acetic acid] | 7.54 |
| Cc1nc2cc3nn2c(c1[C@H](OC(C)(C)C)C(=O)O)N1CCC(C)(CCCCCC(C)Oc2ccc(C(N)=O)cc2-c2cccc-3c2)CC1 (stereo in doubt) [Example 24, (2S)-2-(tert-butoxy)-2-[(22S)-17-carbamoyl-4,22,28-trimethyl-21-oxa-1,5,7,8-tetraazahexacyclo[26.2.2.1^6,9.1^10,14.0^2,7.0^15,20]tetratriaconta-2,4,6(34),8,10(33),11,13,15(20),16,18-decaen-3-yl]acetic acid] | 8.40 |
| Cc1ccc2c(c1)-c1cccc(c1)-c1cc3nc(C)c([C@H](OC(C)(C)C)C(=O)O)c(n3n1)N1CCC(C)(CC1)O/C=C\CC[C@H](C)O2 [Example 19, (2S)-2-(tert-Butoxy)-2-[(22S,25Z)-4,17,22,28-tetramethyl-21,27-dioxa-1,5,7,8-tetraazahexacyclo[26.2.2.1^6,9.1^10,14.0^2,7.0^15,20]tetratriaconta-2,4,6(34),8,10(33),11,13,15(20),16,18,25-undecaen-3-yl]acetic acid] | 7.48 |
| Cc1nc2cc3nn2c(c1[C@H](OC(C)(C)C)C(=O)O)N1CCC(C)(CCC=CCC(C)Oc2ccc(C#N)cc2-c2cccc-3c2)CC1 (stereo in doubt) [Example 22, (2S)-2-(tert-Butoxy)-2-[(22S)-17-cyano-4,22,28-trimethyl-21-oxa-1,5,7,8-tetraazahexacyclo[26.2.2.1^6,9.1^10,14.0^2,7.0^15,20]tetratriaconta-2,4,6(34),8,10(33),11,13,15(20),16,18,24-undecaen-3-yl]acetic acid] | 7.89 |
| Cc1nc2cc3nn2c(c1[C@H](OC(C)(C)C)C(=O)O)N1CCC(C)(CCCCCC(C)Oc2ccc(C#N)cc2-c2cccc-3c2)CC1 (stereo in doubt) [Example 23, (2S)-2-(tert-Butoxy)-2-[(22S)-17-cyano-4,22,28-trimethyl-21-oxa-1,5,7,8-tetraazahexacyclo[26.2.2.1^6,9.1^10,14.0^2,7.0^15,20]tetratriaconta-2,4,6(34),8,10(33),11,13,15(20),16,18-decaen-3-yl]acetic acid] | 7.62 |
| Cc1ccc2c(c1)-c1cccc(c1)-c1cc3nc(C)c([C@H](OC(C)(C)C)C(=O)O)c(n3n1)N1CCC(C)(CCC=CCC(C)O2)CC1 (stereo in doubt) [Example 20, (2S)-2-(tert-Butoxy)-2-[(22S)-4,17,22,28-tetramethyl-21-oxa-1,5,7,8-tetraazahexacyclo[26.2.2.1^6,9.1^10,14.0^2,7.0^15,20]tetratriaconta-2,4,6(34),8,10(33),11,13,15(20),16,18,24-undecaen-3-yl]acetic acid] | 6.88 |

Reference: US10125148B2, “Pyrazolopyrimidine macrocycles as inhibitors of human immunodeficiency virus replication” (priority 2014, dated 2018)
